From US10287268B2, “Imidazolyl kinase inhibitors and uses thereof” (Dana-Farber Cancer Institute, Inc., priority 2014, dated 2019) come the findings set out here.

Common to all, as to type: biochemical
One assay deals with ABL (Homo sapiens (Human), UniProt P00519). Put plainly: Radiometric [γ-32P]ATP protein kinase assay (Hastie et al.), % activity vs DMSO control. Particulars: read-out: Activity of the protein kinase when treated with compound I-1 (% control). On the procedure:
(§1) In another set of experiments, the activities of the compounds described herein against various protein kinases were determined according to the methods reported in Hastie et al., Nature Protocols, 2006, 1, 968-971.
(§2) This buffer consisted of 50 mM Tris-HCl, pH 7.5, 0.1 mM EGTA, 1 mg ml^−1 bovine serum albumin and 0.1% (vol/vol) 2-mercaptoethanol.
(§3) An assay buffer of 500 mM Tris-HCl, pH 7.5, 1 mM EGTA, and 100 mM magnesium acetate was used for assay of a wide variety of protein kinases. In some experiments, other cofactors were included (e.g., calcium ions and calmodulin were included for assay of calcium-calmodulin-dependent protein kinases).
(§4) The specific activity of the [γ-^32P] ATP solution was 1×10^5 to 1×10^6 c.p.m. per nmol depending on what was needed to produce an optimal signal/noise ratio. Stocks of nonradioactive (“cold”) ATP were dissolved in 10 mM HEPES, and the pH of the resulting stock solutions was adjusted to 7.4. To measure the concentration of ATP, a sample of such a stock solution was diluted to 20 μM, and the absorbance of the diluted sample was measured at 259 nm. The absorbance of a 20 μM stock solution of ATP at 259 nm was about 0.31. The 1-mM solution of cold ATP was “spiked” with [γ-^32P] ATP to produce a radioactivity of 1×10^5 to 1×10^6 c.p.m. per nmol.
(§5) 1) The number of assay samples needed was determined based on, e.g., the following considerations: (i) each condition was assayed in duplicate; (ii) two controls containing peptide or protein substrate and ATP but no protein kinase were included to assess contamination by any free ATP not incorporated into substrate, alongside two controls lacking a peptide or protein substrate but containing ATP and protein kinase to correct for any incorporation of phosphate into the kinase itself (e.g., autophosphorylation); and (iii) a maximum of 40 samples were assayed manually at one time by a single person. Microcentrifuge tubes were label distinctly and were placed on ice.
(§6) 2) Suspend a wire mesh basket in a beaker containing a magnetic stir bar and not less than 5 ml of 75 mM phosphoric acid per assay sample or a minimum volume of 100 ml. Place this on a magnetic stirrer behind a plexiglass shield.
(§7) 3) Label 2 cm×2 cm squares of phosphocellulose paper corresponding to the samples to be pipetted into each microcentrifuge tube. Label the phosphocellulose paper using pencil, which was not affected by the solvents used to wash the papers at the end of the assay.
(§8) 4) Dilute the protein kinase in enzyme dilution buffer and place on ice.
(§9) 5) Pipette 5 μl of 10× concentrated assay buffer, 5 μl peptide or protein substrate (the two “no-substrate” control tubes had 5 μl water added instead of peptide or protein substrate), and 30 μl distilled water into each tube. Keep the tubes on ice.
(§10) 6) Add 5 μl diluted protein kinase to each tube, except for the two “no-enzyme” control tubes, which had 5 μl enzyme dilution buffer added, and still keeping the tubes on ice. In some cases, premixed “cocktails” of assay components were prepared containing peptide or protein substrate, assay buffer, and distilled water to limit the number of additions to each assay tube.
(§11) 7) Insert each tube into the water bath at intervals of 15 s to allow the assay mixture to reach 30° C. Begin the protein kinase reactions by adding 5 μl of 1 mM [γ-^32P]ATP to each tube at intervals of 15 s. Close each tube, vortex for 1 s to mix the contents and immediately replace in a rack in the water bath. Incubate for 10 min at 30° C.
(§12) 8) At 10 min after the addition of ATP, remove each tube from the water bath at intervals of 15 s.
(§13) 9) “Spot” […] of each reaction mixture onto the center of a 2-cm square of P81 phosphocellulose paper using forceps to handle the paper squares. Immediately immerse the paper into the 75 mM phosphoric acid contained in the wire mesh basket suspended in the beaker that is being stirred continuously with a magnetic stirrer. This was be done within 1 to 2 s, as this step terminated the reaction. […]

In a further assay the target is BRK (Homo sapiens (Human), UniProt Q13882). The assay is described as above. The conditions noted are these: read-out: Activity of the protein kinase when treated with compound I-1 (% control). On the procedure: as §1, §2, §3, §4, §5, §6, §7, §8, §9, §10, §11, §12, §13
In assay [1] the target is T1, BTK (Homo sapiens (Human), UniProt Q06187). Described as above. The conditions noted are these: read-out: Activity of the protein kinase when treated with compound I-1 (% control). The protocol:
as §1, §2, §3, §4, §5, §6, §7, §8, §9, §10, §11, §12, §13

The target in a further assay is CSK (Homo sapiens (Human), UniProt P41240). The assay is described as above. Particulars: read-out: Activity of the protein kinase when treated with compound I-1 (% control). The protocol:
as §1, §2, §3, §4, §5, §6, §7, §8, §9, §10, §11, §12, §13

The target of another assay is DDR2 (Homo sapiens (Human), UniProt Q16832). Described as above. The conditions noted are these: read-out: Activity of the protein kinase when treated with compound I-1 (% control). The protocol:
as §1, §2, §3, §4, §5, §6, §7, §8, §9, §10, §11, §12, §13

The target in another assay is EPH-A2 (Homo sapiens (Human), UniProt P29317). The description is as above. Particulars: read-out: Activity of the protein kinase when treated with compound I-1 (% control). On the procedure: as §1, §2, §3, §4, §5, §6, §7, §8, §9, §10, §11, §12, §13
Another assay concerns the target EPH-B1 (Homo sapiens (Human), UniProt P54762). Described as above. Particulars: read-out: Activity of the protein kinase when treated with compound I-1 (% control). The protocol:
as §1, §2, §3, §4, §5, §6, §7, §8, §9, §10, §11, §12, §13

Another assay deals with FGF-R1 (Homo sapiens (Human), UniProt P11362). Described as above. The conditions noted are these: read-out: Activity of the protein kinase when treated with compound I-1 (% control). On the procedure: as §1, §2, §3, §4, §5, §6, §7, §8, §9, §10, §11, §12, §13
Chain of FGF-R1 (P11362 22-822): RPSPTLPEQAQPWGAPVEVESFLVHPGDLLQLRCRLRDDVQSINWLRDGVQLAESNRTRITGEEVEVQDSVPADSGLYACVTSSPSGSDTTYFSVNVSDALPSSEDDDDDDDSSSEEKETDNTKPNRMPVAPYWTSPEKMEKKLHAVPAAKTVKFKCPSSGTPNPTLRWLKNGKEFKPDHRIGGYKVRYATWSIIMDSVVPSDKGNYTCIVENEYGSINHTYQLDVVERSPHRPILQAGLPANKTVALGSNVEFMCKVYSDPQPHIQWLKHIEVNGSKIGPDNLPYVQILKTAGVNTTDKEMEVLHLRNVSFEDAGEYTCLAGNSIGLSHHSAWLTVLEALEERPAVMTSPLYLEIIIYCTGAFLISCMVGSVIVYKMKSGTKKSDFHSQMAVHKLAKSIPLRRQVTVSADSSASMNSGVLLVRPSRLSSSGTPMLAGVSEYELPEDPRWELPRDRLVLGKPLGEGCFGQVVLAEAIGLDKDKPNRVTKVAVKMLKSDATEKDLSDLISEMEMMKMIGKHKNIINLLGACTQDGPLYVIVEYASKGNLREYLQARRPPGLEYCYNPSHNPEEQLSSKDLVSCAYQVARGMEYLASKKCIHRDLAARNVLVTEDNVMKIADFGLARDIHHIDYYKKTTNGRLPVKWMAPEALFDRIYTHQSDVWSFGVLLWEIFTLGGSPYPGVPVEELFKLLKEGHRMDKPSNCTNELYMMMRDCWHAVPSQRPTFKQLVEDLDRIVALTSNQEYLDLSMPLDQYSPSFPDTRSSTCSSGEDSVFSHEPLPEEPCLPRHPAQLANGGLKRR
Another assay has as its target HER4 (Homo sapiens (Human), UniProt Q15303). The description is as above. Particulars: read-out: Activity of the protein kinase when treated with compound I-1 (% control). The protocol: as §1, §2, §3, §4, §5, §6, §7, §8, §9, §10, §11, §12, §13
The next assay concerns the target Lck (Homo sapiens (Human), UniProt P06239). The assay is described as above. The conditions noted are these: read-out: Activity of the protein kinase when treated with compound I-1 (% control). On the procedure: as §1, §2, §3, §4, §5, §6, §7, §8, §9, §10, §11, §12, §13
A further assay concerns the target Src (Homo sapiens (Human), UniProt P12931). The description is as above. The conditions noted are these: read-out: Activity of the protein kinase when treated with compound I-1 (% control). The protocol: as §1, §2, §3, §4, §5, §6, §7, §8, §9, §10, §11, §12, §13
The target of another assay is TIE2 (Homo sapiens (Human), UniProt Q02763). The assay is described as above. The conditions noted are these: read-out: Activity of the protein kinase when treated with compound I-1 (% control). On the procedure: as §1, §2, §3, §4, §5, §6, §7, §8, §9, §10, §11, §12, §13
Another assay deals with VEG-FR. Described as above. On the procedure:
as §1, §2, §3, §4, §5, §6, §7, §8, §9, §10, §11, §12, §13

The next assay concerns the target YES1 (Homo sapiens (Human), UniProt P07947). The description is as above. Particulars: read-out: Activity of the protein kinase when treated with compound I-1 (% control). On the procedure:
as §1, §2, §3, §4, §5, §6, §7, §8, §9, §10, §11, §12, §13

The target in a further assay is p38a MAPK (Homo sapiens (Human), UniProt Q16539). Described as above. The conditions noted are these: read-out: Activity of the protein kinase when treated with compound I-1 (% control). The protocol:
as §1, §2, §3, §4, §5, §6, §7, §8, §9, §10, §11, §12, §13

Assay [2] has as its target T1, BTK. In words: Protein kinase IC50 determination (method developed by Invitrogen Technology). The conditions noted are these: concentration of ATP: Km for ATP. The protocol: (§14) In some experiments, inhibitory activities of the compounds described herein against select protein kinases were determined as IC50 values (e.g., IC50 values in Table 3) using methods known in the art (e.g., the method developed by Invitrogen Technology).

A further assay has as its target HCK (Homo sapiens (Human), UniProt P08631). Described as above. Particulars: concentration of ATP: Km for ATP. On the procedure: as §14
Where [3] appears, read: 0.1 μM of compound I-1, DMSO control = 100%.
Setting [4] is: 1 μM of compound I-1, DMSO control = 100%.

Chain of HCK (P08631 whole entry): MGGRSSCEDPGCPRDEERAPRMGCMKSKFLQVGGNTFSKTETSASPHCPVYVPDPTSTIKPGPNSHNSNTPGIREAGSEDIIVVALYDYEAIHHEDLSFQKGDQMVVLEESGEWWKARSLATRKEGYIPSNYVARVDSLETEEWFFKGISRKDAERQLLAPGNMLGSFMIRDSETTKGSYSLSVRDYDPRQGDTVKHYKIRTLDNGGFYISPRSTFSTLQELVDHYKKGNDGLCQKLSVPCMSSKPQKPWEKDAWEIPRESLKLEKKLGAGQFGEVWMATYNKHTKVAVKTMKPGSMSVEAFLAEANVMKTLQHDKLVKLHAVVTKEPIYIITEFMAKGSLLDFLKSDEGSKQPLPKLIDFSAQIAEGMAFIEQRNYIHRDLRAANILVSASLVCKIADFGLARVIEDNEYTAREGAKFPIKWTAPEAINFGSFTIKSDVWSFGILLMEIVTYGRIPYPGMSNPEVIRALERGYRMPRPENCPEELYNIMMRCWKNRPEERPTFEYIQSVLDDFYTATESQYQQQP
T1 sequence (Q06187 whole entry): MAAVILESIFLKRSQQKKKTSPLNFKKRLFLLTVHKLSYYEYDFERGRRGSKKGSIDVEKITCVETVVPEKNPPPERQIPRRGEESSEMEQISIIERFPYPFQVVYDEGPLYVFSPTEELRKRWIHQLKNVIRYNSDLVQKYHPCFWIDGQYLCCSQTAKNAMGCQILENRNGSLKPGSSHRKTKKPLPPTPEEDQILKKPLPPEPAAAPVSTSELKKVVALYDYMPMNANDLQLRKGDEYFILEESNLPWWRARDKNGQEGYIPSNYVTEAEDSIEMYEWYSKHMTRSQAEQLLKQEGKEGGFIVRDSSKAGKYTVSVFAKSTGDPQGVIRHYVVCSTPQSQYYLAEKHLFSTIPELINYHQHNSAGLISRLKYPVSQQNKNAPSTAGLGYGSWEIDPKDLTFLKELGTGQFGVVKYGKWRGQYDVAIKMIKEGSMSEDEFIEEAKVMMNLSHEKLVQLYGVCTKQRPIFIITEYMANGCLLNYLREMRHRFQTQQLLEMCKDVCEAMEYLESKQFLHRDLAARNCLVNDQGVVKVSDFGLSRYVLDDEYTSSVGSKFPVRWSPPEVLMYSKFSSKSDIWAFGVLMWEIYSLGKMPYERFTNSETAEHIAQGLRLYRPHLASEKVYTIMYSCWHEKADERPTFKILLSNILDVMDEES
Chain of ABL (P00519 whole entry): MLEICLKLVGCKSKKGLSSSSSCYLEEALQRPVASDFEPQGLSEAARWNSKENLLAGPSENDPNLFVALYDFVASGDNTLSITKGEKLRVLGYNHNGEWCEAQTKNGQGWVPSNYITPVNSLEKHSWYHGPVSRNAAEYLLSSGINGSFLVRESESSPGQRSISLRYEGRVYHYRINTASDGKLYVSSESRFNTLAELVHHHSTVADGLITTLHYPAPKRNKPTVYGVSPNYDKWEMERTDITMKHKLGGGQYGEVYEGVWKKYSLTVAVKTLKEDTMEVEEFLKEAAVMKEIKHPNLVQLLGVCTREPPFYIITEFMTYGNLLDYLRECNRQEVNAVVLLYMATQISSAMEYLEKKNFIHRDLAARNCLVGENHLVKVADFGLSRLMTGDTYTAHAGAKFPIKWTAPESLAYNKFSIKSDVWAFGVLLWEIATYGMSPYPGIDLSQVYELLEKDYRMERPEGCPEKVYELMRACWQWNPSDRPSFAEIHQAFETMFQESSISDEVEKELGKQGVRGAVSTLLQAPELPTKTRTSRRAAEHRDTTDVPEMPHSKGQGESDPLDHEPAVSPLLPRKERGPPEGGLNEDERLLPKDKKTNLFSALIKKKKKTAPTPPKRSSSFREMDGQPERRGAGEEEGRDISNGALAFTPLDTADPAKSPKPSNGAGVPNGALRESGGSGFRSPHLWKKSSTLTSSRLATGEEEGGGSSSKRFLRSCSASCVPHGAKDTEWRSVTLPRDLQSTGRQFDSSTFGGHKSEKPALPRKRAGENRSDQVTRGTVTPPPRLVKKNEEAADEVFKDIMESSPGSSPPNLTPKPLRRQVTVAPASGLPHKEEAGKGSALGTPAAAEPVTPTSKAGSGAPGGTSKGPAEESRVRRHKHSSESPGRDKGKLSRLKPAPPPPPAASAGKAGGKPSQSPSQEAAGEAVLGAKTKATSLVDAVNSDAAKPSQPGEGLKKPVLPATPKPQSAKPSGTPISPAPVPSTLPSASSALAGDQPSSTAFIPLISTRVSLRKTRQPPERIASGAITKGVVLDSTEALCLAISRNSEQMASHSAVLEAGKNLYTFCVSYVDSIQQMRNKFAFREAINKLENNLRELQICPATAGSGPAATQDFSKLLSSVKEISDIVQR
Chain of p38a MAPK (Q16539 whole entry, looked up): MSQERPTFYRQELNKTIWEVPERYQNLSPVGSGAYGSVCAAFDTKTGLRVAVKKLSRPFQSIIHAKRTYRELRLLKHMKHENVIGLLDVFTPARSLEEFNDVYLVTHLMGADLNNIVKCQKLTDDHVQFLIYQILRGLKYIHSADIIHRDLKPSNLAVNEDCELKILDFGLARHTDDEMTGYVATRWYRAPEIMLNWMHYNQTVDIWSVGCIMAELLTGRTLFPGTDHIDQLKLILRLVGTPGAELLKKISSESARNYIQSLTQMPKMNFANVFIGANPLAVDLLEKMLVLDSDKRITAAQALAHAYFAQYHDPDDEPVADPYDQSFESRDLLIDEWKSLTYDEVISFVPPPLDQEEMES
Chain of Lck (P06239 whole entry): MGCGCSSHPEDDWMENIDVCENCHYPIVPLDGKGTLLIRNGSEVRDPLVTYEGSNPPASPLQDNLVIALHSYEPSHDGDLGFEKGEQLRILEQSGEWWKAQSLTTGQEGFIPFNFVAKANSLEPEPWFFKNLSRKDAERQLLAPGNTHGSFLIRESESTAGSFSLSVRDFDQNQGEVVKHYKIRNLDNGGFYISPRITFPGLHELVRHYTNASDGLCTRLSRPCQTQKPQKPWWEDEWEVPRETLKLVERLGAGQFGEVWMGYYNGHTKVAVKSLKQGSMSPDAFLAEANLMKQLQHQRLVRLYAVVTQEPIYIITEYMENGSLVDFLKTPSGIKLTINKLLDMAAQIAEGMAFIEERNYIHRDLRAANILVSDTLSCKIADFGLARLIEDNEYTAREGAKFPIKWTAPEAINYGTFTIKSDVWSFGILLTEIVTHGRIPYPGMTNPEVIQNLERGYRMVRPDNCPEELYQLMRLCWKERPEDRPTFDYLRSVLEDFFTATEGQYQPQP
Chain of DDR2 (Q16832 22-855): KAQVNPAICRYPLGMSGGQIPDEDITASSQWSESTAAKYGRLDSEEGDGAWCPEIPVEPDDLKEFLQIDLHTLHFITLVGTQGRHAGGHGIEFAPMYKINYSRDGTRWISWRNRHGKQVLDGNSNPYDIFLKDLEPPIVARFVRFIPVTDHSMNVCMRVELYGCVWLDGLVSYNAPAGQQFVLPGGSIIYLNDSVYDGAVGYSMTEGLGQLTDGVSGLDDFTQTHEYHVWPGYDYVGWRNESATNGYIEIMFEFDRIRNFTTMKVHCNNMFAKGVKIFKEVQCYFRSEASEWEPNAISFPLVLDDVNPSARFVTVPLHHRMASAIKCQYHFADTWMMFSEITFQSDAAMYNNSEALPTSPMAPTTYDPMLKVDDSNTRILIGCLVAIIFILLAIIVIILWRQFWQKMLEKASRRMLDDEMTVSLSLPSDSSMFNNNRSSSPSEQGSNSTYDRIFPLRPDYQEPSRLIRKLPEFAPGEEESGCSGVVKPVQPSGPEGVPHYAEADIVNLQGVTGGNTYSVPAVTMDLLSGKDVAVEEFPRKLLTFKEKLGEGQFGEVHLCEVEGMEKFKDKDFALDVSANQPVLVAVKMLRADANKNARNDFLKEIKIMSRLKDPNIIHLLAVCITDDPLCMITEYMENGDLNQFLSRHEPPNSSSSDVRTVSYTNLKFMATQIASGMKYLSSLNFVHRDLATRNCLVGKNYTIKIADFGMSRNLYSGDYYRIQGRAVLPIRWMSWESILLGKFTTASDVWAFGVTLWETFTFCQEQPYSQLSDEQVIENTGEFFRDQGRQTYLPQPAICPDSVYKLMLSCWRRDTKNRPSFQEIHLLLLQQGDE

Regarding `CCN1CCN(c2ccc(Nc3cc(-n4ccnc4Nc4c(C)cccc4C)ncn3)cc2)CC1` [Compound I-1, 6-(2-((2,6-Dimethylphenyl)amino)-1H-imidazol-1-yl)-N-(4-(4-ethylpiperazin-1-yl)phenyl)pyrimidin-4-amine], the remaining activity at 0.1 µM at ABL (setting [3]) came out at 84%; at BRK (setting [3]), 74%; on BTK [1] (setting [3]), 85%; on CSK (setting [3]), 94%; on DDR2 (setting [3]), 46%; on EPH-A2 (setting [3]), 99%. For the same compound, the remaining activity at 0.1 µM at EPH-B1 (setting [3]) amounted to 86%; at FGF-R1 (setting [3]), 67%; at HER4 (setting [3]) it was 97%; on Lck (setting [3]), 24%; on Src (setting [3]) it was 43%; at TIE2 (setting [3]) it was 82%. Besides, the remaining activity at 0.1 µM at YES1 (setting [3]) worked out at 41%; at p38a MAPK (setting [3]) it was 87%. Further, the remaining activity at 1 µM at ABL (setting [4]) amounted to 48%; at BRK (setting [4]), 16%; on BTK [1] (setting [4]), 30%; at CSK (setting [4]) it was 67%; on DDR2 (setting [4]), 12%; at EPH-A2 (setting [4]), 59%. Moreover, the remaining activity at 1 µM was found to be 16% on EPH-B1 (setting [4]); 30% at FGF-R1 (setting [4]); 76% on HER4 (setting [4]); 13% on Lck (setting [4]); 13% at Src (setting [4]); 85% at TIE2 (setting [4]). Besides, the remaining activity at 1 µM on YES1 (setting [4]) is 8%; on p38a MAPK (setting [4]), 28%. The “Activity of the protein kinase when treated with compound I-1 (% control)” value in the assay with VEG-FR (setting [3]) stood at 81 % control; in the assay on VEG-FR (setting [4]), 31 % control. Moreover, the IC50 (commonly the midpoint of a concentration-inhibition curve) against BTK [2] turned out to be 338 nM; at HCK, 111 nM.

In the case of `Cc1cccc(Cl)c1Nc1nccn1-c1cc(Nc2cnn(C)c2)ncn1` [Compound I-4], the IC50 against BTK [2] was over 10000 nM; at HCK, 3000 nM.

Turning to `COCCOc1ccc(Nc2cc(-n3ccnc3Nc3c(C)cccc3Cl)ncn2)cc1` [Compound I-2], the 50% inhibitory concentration (IC50) was determined as 1860 nM against BTK [2] and 307 nM on HCK.

For `COCCOc1ccc(Nc2cc(-n3ccnc3Nc3c(C)cccc3C)ncn2)cc1` [Compound I-3], the IC50 was 9980 nM on BTK [2] and 2420 nM on HCK.
